Consider two molecules from US20240076667A1, “APPLICATION OF ANTISENSE OLIGONUCLEOTIDE TARGETING PBX1 PROMOTER REGION G-QUADRUPLEX IN PREPARATION OF MEDICINE FOR TREATING MELANOMA” (JILIN UNIVERSITY, priority 2022, published 2024).

“Also recorded” adds a separate entry of the source.

In one test the test system is A375 cells. Put plainly: Cell proliferation assay (CCK-8), A375. Conditions: dose-dependent manner. The test is classed as cell-based, human. The method, then: Cell proliferation assay: cell viability is determined by the cell counting kit-8 (CCK-8) according to the manufacturer's instructions (Abcam, UK). Cells (2000 cells per well) are incubated in the 96-well plate in triplicate and then added to each well at various time points at the final concentration of 10%, and incubation is continued at 37° C. After 60 minutes, the absorbance of the sample is measured at the wavelength of 450 nm. Data is analyzed using GraphPad Prism software.

The subject of test [1] is PBX1. As to the kind of experiment: PBX1 mRNA and protein levels by qRT-PCR and western blot in A375 cells. The test is classed as cell-based, human. Conditions: for mRNA level of PBX1: qRT-PCR; for protein level of PBX1: western blot, normalized to GAPDH. The method, then:
(§1) RNA extraction and quantitative RT-PCR detection: total RNA is extracted from cultured cells by using TRIzol (Invitrogen, USA), then is converted into cDNA by SuperScript III First-Strand Synthesis SuperMix (Invitrogen, USA). qRT-PCR detection is performed by using SYBR Green®Mix (Invitrogen, USA) in ABI 7500 (Invitrogen, USA). A relative expression quantity of RNA is calculated by using a comparative CT method.
(§2) Immunoblotting: for protein analysis of a whole-cell lysate, cells are lysed with RIPA (CWBIO, Beijing, China) buffer solution. For tumors, liquid nitrogen is first used to pulverize tissues. Then, the lysate is generated on ice with the RIPA (CWBIO, Beijing, China) buffer solution for 20 minutes, and then centrifuged at 4° C., 13000 rpm for 15 minutes. Protein-containing supernatant is transferred to the fresh microcentrifuge tube, and stored at −20° C. (short-term storage) for subsequent use. The protein is quantified by using the BIO-RAD DC protein assay. The total proteins are electrophoresed on SDS-polyacrylamide gels. Then, the proteins are transferred to polyvinylidene difluoride (PVDF) membrane. After incubation with the primary antibody overnight on the shaker at 4° C., the membrane is washed 6 times (5 minutes each time) with TBS-T (Invitrogen, USA). Then, blots are incubated with horseradish peroxidase (IRP)-conjugated secondary antibodies for 60 minutes at RT on the plate shaker. The membrane is cleaned by TBS-T (6×5 minutes). Detection on immunoreactive bands is performed by using SuperSignalmWest Pico chemiluminescence substrate kit (Thermo Fisher Scientific, USA) and Western blotting detection system (BioRad, USA). GAPDH is used as the loading control for western blotting. The intensity levels of the bands are normalized to GAPDH.

Another test deals with PBX1 dG1. Put plainly: PBX1 dual luciferase reporter assay in HEK293T, A375 and B16-F10 cells. It counts as cell-based. The method, then:
Dual luciferase reporter assay: for the PBX1 luciferase reporter gene assay, PBX1 luciferase reporter gene plasmid and pRL-TK plasmid are co-transfected into HEK293T, A375 and B16-F10 cells in the 96-well plate by Lipofectamine 2000 (Invitrogen, USA). 48 hours after transfection, cells are collected and analyzed using the Dual-Luciferase® Reporter Assay System (Promega, USA). The firefly activity is normalized to the activity of Renilla luciferase.
(§3) Given that G4s in the promoter and transcript are involved in the regulation of transcription and translation related processes, it is speculated that dG1 in the PBX1 promoter may regulate the transcription of PBX1, and rG1 in 5′UTR of the PBX1 transcript may regulate the transcription of PBX1. In addition, the luciferase reporter assay is first performed. The dG1 promoter sequence (designated as dG1-wt) and mutated dG1 promoter sequence (designated as dG1-mut) of PBX1 are cloned into pGL3 luciferase reporter vector. […] In addition, this embodiment further constructs an enhanced green fluorescent protein (EGFP) reporter gene system, to study the effect of rG1 on translation. The rG1 transcript sequence (designated as rG1-wt) and mutant rG1 transcript sequence (designated as rG1-mut) of PBX1 are fused to 5′UTR of EGFP, and the reporter gene vector is transfected into HEK293T cells. By confocal fluorescence experiments, the EGFP fluorescence intensity of rG1-WT is less than that of rG1-MUT, and PDS or TMPyP4 decreases the fluorescence intensity of rG1-WT in HEK293T cells (FIG. 3B). Finally, this embodiment studies the potential effect of PBX1 G4s on PBX1 expression of A375 and B16-F10 cells.
Background: A reporter such as luciferase makes a cellular process visible.

For another test, the system named is PBX1 promoter region. Put plainly: BG4 chromatin immunoprecipitation (ChIP) followed by qRT-PCR in A375 cells. It counts as cell-based, human. The method, then: FIGS. 2A-2G are features formed by dG1 and rG1 in vitro and in cells. In (FIG. 2A), Left: CD spectra of WT and Mut dG1, and Right: CD spectra of WT and Mut rG1. CD is circular dichroism. In (FIG. 2B), Left: gel mobility assay of WT and Mut dG1, and Right: gel mobility assay of WT and Mut rG1. In (FIG. 2C), under specified conditions, fluorescence-on assay of NMM in absence of presence of dG1 or rG1, and their G/A mutant. In (FIG. 2D), the occupancy of BG4 in the PBX1 promoter region is measured in A375 cells by BG4 chromatin immunoprecipitation (ChIP), followed by qRT-PCR. In (FIG. 2E), RNA immunoprecipitation (RIP) detection is performed to show the association between BG4 and the PBX1 transcript in A375 cells, followed by qRT-PCR. In (FIG. 2F), the occupancy of BG4 in the PBX1 promoter region is measured, by the BG4 chip, in A375 cells treated with or without PDS and TMPyP4, followed by qRT-PCR. […] SEM represents the standard error of mean. *P< 0.05, **P< 0.01***P< 0.001.
In this embodiment, several methods are further employed to verify the formation of dG1 and rG1. First, circular dichroism (CD) is used to examine the molar ellipticity of dG1 and rG1 sequences (33 nt) and mutants thereof, and the mutants are designed to eliminate G4 formation. […] Both dG1 and rG1 are found to enhance the fluorescence of N N (FIG. 2C). […]
Background: Real-time PCR tracks product formation cycle by cycle.

The subject of another test is PBX1 rG1. As to the kind of experiment: EGFP reporter gene system, confocal fluorescence. Conditions: HEK293T cells; 2 μM PDS or 5 μM TMPyP4. It counts as cell-based. The method, then:
Construction of an EGFP reporter vector: the reporter vector (Inovogen Tech. Co., Beijing, China) with pLV-EGFP-N as the backbone gene encodes the rG1 site of the PBX1 5′UTR sequence. By using the Strata gene rapid change site-directed mutagenesis kit, point mutation is performed on the rG1 site.
as §3, with “Finally, this embodiment studies the potential effect of PBX1 G4s on PBX1 expression of A375 and B16-F10 cells.” left out

Test [2] has as its system PBX1. Put plainly: PBX1 mRNA and protein levels by qRT-PCR and western blot in B16-F10 cells. The test is classed as cell-based, mouse. Conditions: for mRNA level of PBX1: qRT-PCR; for protein level of PBX1: western blot, normalized to GAPDH. The method, then: as §1, §2

`NCCOc1cc(C(=O)Nc2cc(OCCN)c3ccccc3n2)nc(C(=O)Nc2cc(OCCN)c3ccccc3n2)c1` [PDS, Pyridostatin]: the “cell viability (activity) measured by CCK8” value in the test on A375 cells is given as “reduce; also recorded: remarkably reduces”. In the test with PBX1 [1], the “mRNA level of PBX1” value is given as “inhibit; also recorded: remarkably reduces” and the “protein level of PBX1” value was “inhibit; also recorded: remarkably reduces”. Moreover, in the test with PBX1 dG1, the “luciferase activity of dG1-mut transfected cells” value is given as “does not affect” and the “luciferase activity of dG1-wt transfected cells” value was “remarkably inhibits”. Besides, the “pull-down of the PBX1 promoter by BG4” value with PBX1 promoter region is recorded as “enhance”. Moreover, the “EGFP fluorescence intensity of rG1-WT” value with PBX1 rG1 was “decreases”. In addition, in the test on PBX1 [2], the “mRNA level of PBX1” value was “inhibit; also recorded: remarkably reduces” and the “protein level of PBX1” value is on record as “inhibit; also recorded: remarkably reduces”.

Regarding `C[n+]1ccc(-c2c3nc(c(-c4cc[n+](C)cc4)c4ccc([nH]4)c(-c4cc[n+](C)cc4)c4ccc([nH]4)c(-c4cc[n+](C)cc4)c4nc2C=C4)C=C3)cc1` [TMPyP4], the “cell viability (activity) measured by CCK8” value in the test on A375 cells was “reduce; also recorded: remarkably reduces”. In the test with PBX1 [1], the “mRNA level of PBX1” value was “inhibit; also recorded: remarkably reduces” and the “protein level of PBX1” value is “inhibit; also recorded: remarkably reduces”. Further, in the test with PBX1 dG1, the “luciferase activity of dG1-mut transfected cells” value is given as “does not affect” and the “luciferase activity of dG1-wt transfected cells” value is on record as “remarkably inhibits”. Besides, in the test with PBX1 promoter region, the “pull-down of the PBX1 promoter by BG4” value is “enhance”. The “EGFP fluorescence intensity of rG1-WT” value in the test on PBX1 rG1 was “decreases”. In the test with PBX1 [2], the “mRNA level of PBX1” value was “inhibit; also recorded: remarkably reduces” and the “protein level of PBX1” value is reported as “inhibit; also recorded: remarkably reduces”.
